The subject of assay [1] is induced pluripotent stem cell line (iPS cell #3). Description: Differentiation of induced pluripotent stem cell line (iPS cell #3) into neural progenitor cells; SOX1/P75 flow cytometry. Format: cell-based, human. Particulars: defined medium 1 including PKC inhibitor and BMP inhibitor; total of 9 days. On the procedure: (§1) The obtained colonies were finely chopped and suspension-cultured under conditions of 37° C. and 5% CO2 in a defined medium 1 containing 5 […] of a PKC inhibitor and 0.5 μM of a BMP inhibitor for about 4 days to prepare embryoid bodies (EBs). The defined medium 1 included DMEM/F12 (Life Technologies), 10 μg/ml of insulin (Sigma-Aldrich), 9 μg/ml of transferrin (Sigma-Aldrich), and 14 ng/ml of sodium selenite (Sigma-Aldrich). 3-(1-(3-Imidazol-1-yl propyl)-1H-indol-3-yl)-4-anilino-1H-pyrrole-2,5-dione) (PKC-beta inhibitor) (Millipore) was used as the PKC inhibitor. DMH1 (dorsomorphin homolog 1) (Tocris Bioscience, USA) which is a compound inhibiting BMP 1 type receptor was used as the BMP inhibitor. As a negative control, dimethyl sulfoxide (DMSO) (Sigma-Aldrich) was used instead of the drug.
(§2) EBs, which are round cell masses produced by suspension culture (defined medium 1) for about 4 days, were finely chopped, and then adhered to the bottom of the culture plate, followed by adherent culture for about 5 days (DMEM-F12, 1×N2 supplement, 25 μg/ml of insulin, 20 ng/ml of bFGF, and a matrigel-coated culture plate were used). Microscopic images of EBs obtained by suspension culture for about 4 days, and cells forming rossettes obtained by adherent culture for about 5 days are shown in FIG. 1B (left: embryoid bodies, right: cells forming rosettes). […]
On the technique in general: A flow cytometer gives signals particle by particle.

For assay [2], the system named is CHA6-hESC. Description: Differentiation of CHA6-hESC into neural progenitor cells; SOX1/P75 flow cytometry. Particulars: defined medium 1 including PKC inhibitor and BMP inhibitor; total of 9 days. Format: cell-based, human. On the procedure: as §1, §2
The test system of assay [3] is H9 human embryonic stem cells (hESCs). Briefly: Differentiation of H9 hESCs into neural progenitor cells via embryoid bodies; SOX1/P75 flow cytometry. Format: cell-based.
The test system is the same in assay [4]. Described as above. Format: cell-based. On the procedure: Colonies obtained by culturing H9 human embryonic stem cells (hESCs) (WiCell Research Institute, Inc. Madison, Wis., U.S.A.) in a culture medium were dissociated into single cells using accutase (Life Technologies).
The cells dissociated into single cells were seeded in a culture plate coated with a protein such as vitronectin (VTN) (vitronectin XF, STEMCELL Technologies), laminine (rhLaminin-521, Thermo Fisher Scientific Inc., Waltham, Mass., USA), fibronectin (Thermo Fisher Scientific Inc.), or Matrigel™ (StemCell Technologies, Inc.). An embryonic stem cell (ESC) culture medium was added to the seeded cells to perform undifferentiation culture. As the ESC culture medium, Essential 8 (E8) medium (StemCell Technologies Inc.), TeSR2 medium (StemCell Technologies Inc), StemMACS (Miltenyi Biotec, Bergisch Gladbach, Germany), etc. was used.
as §1
EBs, which are round cell masses produced by suspension culture (defined medium 1) for about 4 days, were finely chopped, and then adhered to the bottom of the culture plate, followed by adherent culture for about 5 days (DMEM-F12, 1×N2 supplement, 25 μg/ml of insulin, 20 ng/ml of bFGF, and a matrigel-coated culture plate were used). Microscopic images of EBs obtained by suspension culture for about 4 days, and cells forming rossettes obtained by adherent culture for about 5 days are shown in FIG. 1B (left: embryoid bodies, right: cells forming rosettes).
2% (v/v) paraformaldehyde (Sigma-Aldrich) was added to cells cultured for a total of 9 days (suspension culture for 4 days+adherent culture for 5 days), and allowed to react at room temperature for about 10 minutes to fix the cells. 2% (v/v) normal serum/1×PBS (Vector Laboratories, Inc., Burlingame, Calif.) containing 0.1% (v/v) TRITON™ X-100 (Sigma-Aldrich) was added to the cells, and allowed to react at room temperature for 30 minutes to block the fixation. To analyze a proportion of cells expressing SOX1 which is a neural progenitor cell (NPC) marker or P75 protein which is a neural crest stem cell (NCSC) marker, immunostaining was performed using phycoerythrin (PE)-labeled anti-P75 monoclonal antibody (1:50 dilution) (Miltenyi Biotec), and phycoerythrin (PE)-labeled anti-Sox1 monoclonal antibody (1:100 dilution) (BD Biosciences). The immunostained cells were subjected to flow cytometry using a BD FACSCalibur flow cytometer (BD Biosciences, Sparks, Md., USA).
H9-hESCs were cultured by the method of differentiating via embryoid bodies as in Example 1.1(1). However, a defined medium 2 described below was used instead of the defined medium 1 used in Example 1.1(1).
The defined medium 2 was prepared by mixing knockout DMEM (Invitrogen), 20% (v/v) knockout serum replacement (KSR, Invitrogen), 2 mM L-glutamine (invitrogen), 1% (w/v) penicillin/streptomycin (Invitrogen), and 0.1 mM β-mercaptoethanol (Invitrogen).
H9-hESCs were cultured by the method of differentiating via embryoid bodies as in Example 1(1). However, a defined medium 3 was used instead of the defined medium 1 used in Example 1(1). The defined medium 3 was prepared by mixing DMEM/F12 (Invitrogen) and N2 supplement (Invitrogen). […]
The source holds these as a separate data set.

Assay [5] has as its system CHA15-hESC. Briefly: Differentiation of CHA15-hESC into neural progenitor cells; SOX1/P75 flow cytometry. It is filed as cell-based, human. Particulars: defined medium 1 including PKC inhibitor and BMP inhibitor; total of 9 days. On the procedure:
as §1, §2

[6] abbreviates: defined medium 2 including PKC inhibitor and BMP inhibitor.
Setting [7] is: defined medium 3 including PKC inhibitor and BMP inhibitor.

Regarding `CC(C)Oc1ccc(-c2cnc3c(-c4ccnc5ccccc45)cnn3c2)cc1` [DMH1, 4-[6-[4-(1-methylethoxy)phenyl]pyrazolo[1,5-a]pyrimidin-3-yl]-quinoline], the “differentiation into NPCs” value in assay [1], in assay [2], in assay [4] (setting [6]), in assay [4] (setting [7]) and in assay [5] was “differentiation into NPCs is induced” throughout. In addition, the “differentiation into SOX1-expressing NPCs” value in assay [3] (defined medium 1, 5 μM PKC inhibitor + 0.25 μM to 5 μM DMH1) is no less than 96%; in assay [3] (defined medium 2, 5 μM PKC inhibitor + 5 μM DMH1), no less than 96%. In assay [3] (defined medium 2, 5 μM PKC inhibitor + 0 μM to 0.5 μM DMH1), the “differentiation into P75-expressing neural crest stem cells” value was no less than 84%. In addition, the “cells expressing SOX1 (NPC marker)” value in assay [4] (defined medium 1, 5 μg/ml PKC inhibitor + 0.5 μM DMH1, suspension culture 4 days + adherent culture 5 days) was “most of the cultured cells expressed SOX1”; in assay [4] (defined medium 2 including PKC inhibitor and BMP inhibitor, 4 days suspension + 5 days adherent), “most of the cultured cells expressed SOX1”; in assay [4] (defined medium 3 including PKC inhibitor and BMP inhibitor, 4 days suspension + 5 days adherent) it was “most of the cultured cells expressed SOX1”. In addition, the “number of cells expressing P75 (neural crest stem cell marker)” value was “small” in assay [4] (defined medium 1, 5 μg/ml PKC inhibitor + 0.5 μM DMH1, total of 9 days culture); “relatively very small” in assay [4] (setting [6]); “relatively very small” in assay [4] (setting [7]). In addition, the “differentiation into NPC” value in assay [4] (defined medium 1 including PKC inhibitor and DMH1) is given as “differentiation into NPC is induced”.
As to `O=C1NC(=O)C(c2cn(CCCn3ccnc3)c3ccccc23)=C1Nc1ccccc1` [PKC inhibitor], the “differentiation into P75-expressing neural crest stem cells” value in assay [3] (defined medium 1, only 5 μM PKC inhibitor without DMH1) is given as no less than 87%.
